Data set [1] in a line: Shape factor SF and particle shape from SEM images. It is filed as physicochemical. On the procedure:
Accordingly, the powder particles of the invention are characterized by a “shape factor” SF comprised between 0.8 and 1.0, preferably from 0.85 and 0.95 as determined according to the following equation reported in Kumar S et al., Curr. Appl. Phys. Influence of metal powder shape on drag coefficient in a spray jet, 2008, in press doi:10.1016/j.cap.2008.06.005.
RN indicates the roundness of the particle and is calculated by applying the following formula: […]
wherein p and A are the mean perimeter and area values, respectively, of ten spherical particles as measured from Scanning electron microscopy (SEM) images.
The shape factor of the obtained particles, calculated according to the equation reported in the Detailed Description of the Preferred Embodiments, turned out to be comprised between 0.87 and 0.95.

The nature of data set [2]: Force and work of adhesion by atomic force microscopy (colloid probe). It is filed as physicochemical. To be noted: against smooth lactose carrier. From the text: The force of adhesion of the batches of powder particles obtained in Example 1 has been determined according to the procedure reported hereafter in comparison to those to those of micronised carmoterol hydrochloride and budesonide raw materials (r.m.) obtained by a conventional milling process.
As a substrate, alpha-lactose particles with a smooth surface having the characteristics reported in EP 1 196 146 and obtained as therein described are used.
An Atomic Force Microscope (AFM) as a scanning probe microscope is used to image lactose surface on an nm or even sub-nm level and to measure surface forces between the powder particles of the invention and particles of smoothed lactose.
A way to get information on the surface forces which are acting in a system and to illustrate the functioning of an AFM, is to use the “Force-Mode”. This is done by moving the tip towards and away from the surface. Recording photodetector signal as a function of z-piezo elongation yields a curve which can be interpreted as a force-vs.-distance-curve. In this work, this technique has been employed to measure the drug-carrier adhesion force modifying the original cantilever.
The interaction of the micron-sized carmoterol particles with lactose carrier surfaces is conducted using the Explorer AFM (Thermomicroscopes, UK). A multistage micromanipulation method for the attachment of micrometer-sized drug particles to tipless cantilevers was adapted from the method described by Preuss and Butt (Preuss M, Butt H-J. 1998, Langmuir, 14:3164-3174). Essentially, colloid probes are prepared by mounting an individual drug particle (approximate diameter 3-5 μm) onto a V-shaped tiples silicon nitride cantilever (spring constant k=0.58 N/m, Veeco Instruments Ltd., Cambridge, UK) using a quick-setting epoxy resin together with the custom-built microscope.
Force separation measurements are collected using layered imaging mode to produce multiple force distance curves (n=250) between each drug probe at three surface sites over a 10 μm×10 μm area. As the variability in probe contact radius geometry was unknown each study is performed at least in triplicate (n=3 to 4 probes for each measurement).
The displacement curves for each of the 250 contact points in the 10 μm×10 μm sector are plotted using a custom built MatLab program (The Mathworks Inc. USA).
The force of adhesion (the apex of the adhesion peak) and the work of adhesion (integrated area of the adhesion peak) is calculated for each graph. […] Outliers are defined as data points outside the 5-95% limits of the normal distributions obtained, and these are removed automatically by the batch conversion software. […]

Each structure is given as a SMILES string. Counter-ions that a name gives are not always drawn.

For `COc1ccc(C[C@@H](C)NC[C@H](O)c2ccc(O)c3[nH]c(=O)ccc23)cc1` [Carmoterol HCl r.m., 8-hydroxy-5-[(1R)-1-hydroxy-2-[[(1R)-2-(4-methoxyphenyl)-1-methylethyl]amino]ethyl]-2(1H)-quinolinone], the “shape factor SF” value in data set [1] (SF=1/RN, RN=p^2/4πA, from SEM images) is given as 0.51. Further, the “particle shape by SEM inspection” value in data set [1] (scanning electron microscope, FIG. 1) was “different irregular flakes and/or sheets”. In addition, in data set [2] (particle population (20%)), the “Force of adhesion Fmax” value is 11.03 ± 1.27 (20%) nN and the “Work of adhesion Wad” value was determined as 413.15 ± 131.85 µJ. In addition, in data set [2] (particle population (80%)), the “Force of adhesion Fmax” value was 42.68 ± 4.63 (80%) nN and the “Work of adhesion Wad” value was 2115.69 ± 344.31 µJ.

The record behind these values is patent publication US20110097409A1, “PARTICLES COMPRISING A SALT OF 8-HYDROXY-2-[[(1R)-2-(4-METHOXYPHENYL)-1-METHYLETHYL]AMINO]ETHYL]-2(1H)-QUINOLINONE HAVING IMPROVED ADHESION PROPERTIES FOR POWDER FORMULATIONS FOR INHALATION” (Chiesi Farmaceutici S.p.A., priority 2008, published 2011).
